Experimental data from patent US8574831B2, “Mutational profiles in HIV-1 reverse transcriptase correlated with phenotypic drug resistance” (Virco N.V., priority 2000, dated 2013).

Test system: HIV with mutations in the HIV protease sequence
Test: Phenotypic fold resistance to protease inhibitors, protease mutations 84A/84L/84C/54M/54L/54V in a background (Examples 8-13)
Assay type: cell-based, HIV-1
Procedure: As is the case with the genotyping assays, the recombinant virus assay starts with the amplification of viral target sequences by means of PCR. The amplicons are incorporated into a proviral laboratory clone with sequences homologous to those present in the amplicon deleted. This generates a stock of chimeric viruses. The viruses are tested for their ability to grow in the presence of different concentrations of drugs. Results are obtained by calculating IC50 values for each inhibitor and by reporting the results as IC50 values, expressed in μM concentrations, or by computing the ratio of the IC50 values found for the chimeric virus to the IC50 values found for a wild type susceptible laboratory virus tested in parallel. In the latter case, resistance is expressed as “fold-resistance” compared to a wild-type susceptible HIV-1 strain. In order to meet the need for high-volume testing and a short turn-around time for an individual test, the latest generation of phenotyping assays has undergone further modifications. The use of reporter gene systems for susceptibility testing allows the implementation of laboratory automation and standardization. See Pauwels, et al., J. Virol. Methods 20, 309-321 (1998); Paulous, S., et al., International Workshop on HIV Drug Resistance, Treatment Strategies and Eradication, St. Petersburg, Fla., USA. Abstr. 46 (1997); and Deeks, S. G., et al., 2nd International Workshop on HIV Drug Resistance and Treatment Strategies, Lake Maggiore, Italy. Abstr. 53 (1998).
The ANTIVIROGRAM® assay (Virco) (WO 97/27480) is based on homologous recombination of patient derived HIV-1 gag/PR/RT sequences into a proviral HIV-1 clone correspondingly deleted for the gag/PR/RT sequences. See Pauwels, et al., J. Virol. Methods 20, 309-321 (1998). A similar assay (Phenosense ViroLogic) is based on enzymatic ligation of patient-derived PR/RT sequences into a correspondingly deleted proviral vector carrying an indicator gene, luciferase, inserted in the deleted HIV-1 envelope gene. See Deeks, S. G., et al., 2nd International Workshop on HIV Drug Resistance and Treatment Strategies, Lake Maggiore, Italy. Abstr. 53 (1998). Hertogs et al. Antimicrob. Agents Chemother. 44(3) 568-573 (2000) the disclosures of which are herein incorporated by reference.
The methods of monitoring HIV-1 drug resistance, may also be used in combination with phenotypic drug resistance testing of viral isolates. For example, in one embodiment, a phenotypic test is utilized that is based upon the construction of chimeric HIV-1 strains composed of the protease (PR) and reverse transcriptase (RT) gene sequences which are isolated and amplified from the patient viral RNA. These strains may subsequently be recombined inside CD4+ T cells with a standard laboratory isogenic (HXB2) HIV-1 DNA construct from which the PR/RT gene sequences were deleted. The recombinant strains may then be grown in the presence of the above-mentioned antiviral drugs and the susceptibility of the viral isolates may be expressed as fold-change value of the IC50 of the drug on the patient isolates over the IC50 of the drug on a wild-type laboratory reference strain.

`CC(C)CN(C[C@@H](O)[C@H](Cc1ccccc1)NC(=O)O[C@H]1CCOC1)S(=O)(=O)c1ccc(N)cc1` [Amprenavir, amprenavir] was tested, and the “mean fold increase in resistance” value (Table 9 #1, protease genotype WT) was 1 fold, the “mean fold increase in resistance” value (Table 9 #2, protease genotype 10I) was 1.1 fold and the “mean fold increase in resistance” value (Table 9 #3, protease genotype 46I) was 1.2 fold. The “mean fold increase in resistance” value (Table 9 #4, protease genotype 46I + 84V) was 2.3 fold, the “mean fold increase in resistance” value (Table 9 #5, protease genotype 46I + 84A) was 7.7 fold and the “mean fold increase in resistance” value (Table 9 #6, protease genotype 10I + 46I) was 5.6 fold. For the same compound, the “mean fold increase in resistance” value (Table 9 #7, protease genotype 10I + 46I + 84V) was 4.5 fold, the “mean fold increase in resistance” value (Table 9 #8, protease genotype 10I + 46I + 84A) was 17 fold and the “mean fold increase in resistance” value (Table 9 #9, protease genotype 10L/I + 46I + 84A) was 24.9 fold. For the same compound, the “mean fold increase in resistance” value (Table 9 #10, protease genotype 10I + 46I + 84A) was 11 fold, the “mean fold increase in resistance” value (Table 9 #11, protease genotype 46I + 71V) was 2.2 fold and the “mean fold increase in resistance” value (Table 9 #12, protease genotype 46I + 71V + 84V/I) was 2.2 fold. The “mean fold increase in resistance” value (Table 9 #13, protease genotype 46I + 71V + 84A) was 23 fold, the “mean fold increase in resistance” value (Table 9 #14, protease genotype 10F + 46I + 71V) was 4.2 fold and the “mean fold increase in resistance” value (Table 9 #15, protease genotype 10I + 46I + 71V + 84V) was 17.8 fold. The “mean fold increase in resistance” value (Table 9 #16, protease genotype 10I + 46I + 71V + 84A) was 15.2 fold, the “mean fold increase in resistance” value (Table 9 #17, protease genotype 10V + 46I + 71T + 84A) was 39.8 fold and the “mean fold increase in resistance” value (Table 9 #18, protease genotype 10I + 46I + 71V + 77I) was 0.9 fold. For the same compound, the “mean fold increase in resistance” value (Table 9 #19, protease genotype 10I + 46I + 71V + 77I + 84V) was 1.4 fold, the “mean fold increase in resistance” value (Table 9 #20, protease genotype 10I + 46I + 71V + 77I + 84A) was 15 fold and the “mean fold increase in resistance” value (Table 9 #21, protease genotype 10I + 33L/I + 46I + 71V + 77V/I + 84A) was 10.9 fold. The “mean fold increase in resistance” value (Table 10 #1, protease genotype 10I + 36I + 71V) was 1.0 fold, the “mean fold increase in resistance” value (Table 10 #2, protease genotype 10I + 36I + 71I + 84V) was 1.1 fold and the “mean fold increase in resistance” value (Table 10 #3, protease genotype 10I + 36I + 71I + 84L) was 0.3 fold. For the same compound, the “mean fold increase in resistance” value (Table 11 #1, protease genotype WT) was 1.0 fold, the “mean fold increase in resistance” value (Table 11 #2, protease genotype 84V) was 2.0 fold and the “mean fold increase in resistance” value (Table 11 #3, protease genotype 84C) was 5.9 fold. For the same compound, the “mean fold increase in resistance” value (Table 11 #4, protease genotype 10I) was 1.1 fold, the “mean fold increase in resistance” value (Table 11 #5, protease genotype 10I + 84V) was 1.2 fold and the “mean fold increase in resistance” value (Table 11 #6, protease genotype 10I + 84C) was 3.4 fold. The “mean fold increase in resistance” value (Table 11 #7, protease genotype 77I) was 0.6 fold, the “mean fold increase in resistance” value (Table 11 #8, protease genotype 77I + 84V) was 3.3 fold and the “mean fold increase in resistance” value (Table 11 #9, protease genotype 77I + 84C) was 2.2 fold. The “mean fold increase in resistance” value (Table 11 #10, protease genotype 77I + 84C) was 4.9 fold, the “mean fold increase in resistance” value (Table 11 #11, protease genotype 10I + 24I + 36I + 46I + 71V + 84C) was 12.8 fold and the “Fold change in IC50” value (Table 12, V19263, genotype 77I) was 0.6 fold. The “Fold change in IC50” value (Table 12, V20160, genotype WT) was 1.0 fold, the “Fold change in IC50” value (Table 12, V021667, genotype 10I) was 1.1 fold and the “Fold change in IC50” value (Table 12, V030496, genotype 10I + 77I) was 0.5 fold. For the same compound, the “Fold change in IC50” value (Table 12, V048869, genotype 10I + 54M + 77I + 90M) was 9.3 fold, the “Fold change in IC50” value (Table 12, V048872, genotype 33F + 54M + 77I + 90M) was 30.3 fold and the “Fold change in IC50” value (Table 12, V048873, genotype 33F + 54M + 77I + 90M) was 37.5 fold. The “Fold change in IC50” value (Table 12, V048877, genotype 10I + 33F + 77I + 90M) was 7.9 fold, the “Fold change in IC50” value (Table 12, V048878, genotype 10I + 33F + 54M + 71V + 77I + 90M) was 13.7 fold and the “Fold change in IC50” value (Table 12, V048879, genotype 10I + 33F + 54M + 71V + 77I + 90M) was 14.1 fold. The “Fold change in IC50” value (Table 12, V048880, genotype 10I + 33F + 77I + 90M) was 3.8 fold, the “Fold change in IC50” value (Table 12, V052940, genotype 71V) was 0.3 fold and the “Fold change in IC50” value (Table 12, V052942, genotype 10I + 71V) was 0.5 fold. The “Fold change in IC50” value (Table 12, V052943, genotype 10I + 90M) was 0.4 fold, the “Fold change in IC50” value (Table 12, V052944, genotype 10I + 90M) was 0.7 fold and the “Fold change in IC50” value (Table 12, V052945, genotype 77I + 90M) was 0.3 fold. For the same compound, the “Fold change in IC50” value (Table 12, V052946, genotype 71V + 90M) was 0.5 fold, the “Fold change in IC50” value (Table 12, V052947, genotype 10I + 77I + 90M) was 1.2 fold and the “Fold change in IC50” value (Table 12, V052948, genotype 10I + 71V + 90M) was 2.0 fold. For the same compound, the “Fold change in IC50” value (Table 12, V052949, genotype 10I + 71V + 77I + 90M) was 0.6 fold, the “Fold change in IC50” value (Table 12, V052950, genotype 33F) was 0.7 fold and the “Fold change in IC50” value (Table 12, V052951, genotype 33F + 77I) was 0.3 fold. For the same compound, the “Fold change in IC50” value (Table 12, V052953, genotype 10I + 33F + 77I) was 1.5 fold, the “Fold change in IC50” value (Table 12, V052954, genotype 33F + 77I + 90M) was 2.1 fold and the “Fold change in IC50” value (Table 12, V052955, genotype 33F + 71V + 90M) was 2.7 fold. For the same compound, the “Fold change in IC50” value (Table 12, V052977, genotype 10I + 33F + 54M) was 12.2 fold, the “Fold change in IC50” value (Table 12, V052978, genotype 10I + 33F + 54M + 71V + 90M) was 19.3 fold and the “Fold change in IC50” value (Table 12, V052979, genotype 10I + 54M) was 10.4 fold. The “Fold change in IC50” value (Table 12, V052980, genotype 10I + 54M + 90M) was 1.4 fold, the “Fold change in IC50” value (Table 12, V052981, genotype 10I + 54M + 71V + 90M) was 8.9 fold and the “Fold change in IC50” value (Table 12, V052982, genotype 10I + 54M + 71V + 77I + 90M) was 3.1 fold. For the same compound, the “Fold change in IC50” value (Table 12, V053832, genotype 10I + 33F) was 0.6 fold.
